Here are results for five compounds from patent US12649754B2, “Prodrugs of 2-(3,5-dichloro-1-methyl-indazol-4-yl)-1-[(1S,3R)-3-(hydroxymethyl)-5-(1-hydroxy-1-methyl-ethyl)-1-methyl-3,4-dihydro-1H-isoquinolin-2-yl]ethanone” (UCB Biopharma SRL, priority 2020, dated 2026).

Usually solubility stands for the dissolved amount per volume that the medium holds.

Structures are written as SMILES. In brackets after ≈: the same amount, converted by molar mass. Where two headings read alike, the source gives them in different places. Some results are limits rather than exact numbers.

A short description of data set [1]: In vivo bioavailability of oral suspensions of prodrugs, plasma LC/MS. The conditions noted are these: male Sprague-Dawley rats, single oral dose of suspension corresponding to 3 mg/kg of compound (I), plasma 0.12 h to 8 h. On the procedure:
The formulation vehicle used in the following suspension is a mixture of 1% (w/v) methylcellulose (400 cps), 0.1% (weight/volume) TWEEN® 80, 0.1% (w/v) Antifoam 1510 US in 25 mM phosphate buffer pH 3.0 in water. […]
The solution is homogenized by sonication during 1 minute, repeated 3 times.
Three male Sprague-Dawley rats were administered the respective suspensions of (II-A), (II-B) and (II-C), as described in paragraph 7.1 above, at a single oral dose corresponding to 3 mg/kg of compound of formula (I).
Plasma samples were collected 0.12 h, 0.25 h, 0.5 h, 1 h, 2 h, 4 h and 8 h following dosing.
Plasma concentrations of compound (I) and respective compounds (II-A), (II-B) and (II-C) were quantified by LC/MS (liquid chromatography/mass spectrometry).

The nature of data set [2]: Solubility by shake flask method (24 h, HPLC). Format: physicochemical. The note with it: n=3 mean; for solubility at 24 h: thermodynamic from solid, read-out: Solubility Measurements (mean value) (24 h). On the procedure: The solubility of compounds of formula (Ia) obtained according to Example 2.12. and compounds of formula (II-A), (II-Ax) and (II-B) obtained respectively according to Examples 3.2. and 4.2., was determined in different media while using the shake flask method. An excess of solids, for (II-Ax) and (II-B) equivalent to a concentration of compound of formula (I) of 5 mg/mL, and for (II-A) equivalent to a concentration of compound of formula (I) of 1 mg/mL was suspended in 5 mL of buffer/biorelevant media as specifically described in Table 1 and incubated in a sealed glass vial (10 mL) for 24 h at room temperature or 37° C. (as indicated below) in a climatic chamber equipped with a rotary mixer. The 24 h time point was assumed to have reached solubility, at which time the suspension was filtered through a 0.45-μm ultra free filter (Merck Millipore) and the drug content was determined by HPLC. The solubility of compounds (Ia), (II-A), (II-Ax) and (II-B) was determined in triplicate (n=3) and mean value calculated.
The media tested are respectively water, phosphate buffer, FasSGF, FASSIF-V2 and FeSSIF-V2. FasSG is fasted condition gastric fluid. FasSGF is prepared at pH 1.6 and contains 0.08 mM Taurocholate, 0.02 mM phospholipids, 34 mM sodium and 59 mM chloride. FaSSIF-V2 and FeSSIF-V2 are Fasted and Fed State Biorelevant Media, respectively. FaSSIF-V2 is prepared at pH 6.5 and contains 3 mM Taurocholate, 0.2 mM Phospholipids, 106 mM Sodium, 69 mM Chloride and 19 mM Maleic acid. FeSSIF-V2 is prepared at pH 5.8 and contains 10 mM Taurocholate, 2 mM Phospholipids, 0.8 mM Oleate, 5 mM Glycerol monoleate, 218 mM Sodium, 125 mM Chloride and 55 mM Maleic acid.

Setting [3] is: FaSSIF-V2, 37 °C, pH 6.5, fassif, FaSSIF-V2, pH 6.5, 37° C.
Setting [4] is: FasSGF, 37 °C, pH 1.6, fassgf or other biorelevant, FasSGF, pH 1.6, 37° C.
The mark [5] stands for this setting: FeSSIF-V2, 37 °C, pH 5.8, fessif, FeSSIF-V2, pH 5.8, 37° C.
The mark [6] stands for this setting: phosphate buffer, pH 4, aqueous buffer, Phosphate buffer (50 mM), pH 4.0, RT.
The mark [7] stands for this setting: phosphate buffer, pH 6.5, aqueous buffer, Phosphate buffer (50 mM), pH 6.5, RT.
The mark [8] stands for this setting: water, pH 7, water, Water, pH 7.0, RT.

In the case of `CC(C)C[C@H](N)C(=O)OC[C@H]1Cc2c(cccc2C(C)(C)O)[C@H](C)N1C(=O)Cc1c(Cl)ccc2c1c(Cl)nn2C` [(II-C), [(1S,3R)-2-[2-(3,5-dichloro-1-methyl-indazol-4-yl)acetyl]-5-(1-hydroxy-1-methyl-ethyl)-1-methyl-3,4-dihydro-1H-isoquinolin-3-yl]methyl (2S)-2-amino-4-methyl-pentanoate], in data set [1], the “cleavage of prodrug into compound of formula (I) in plasma” value (from here on “cleavage”) was “completely cleaved”.

With `C[C@H]1c2cccc(C(C)(C)O)c2C[C@H](CO)N1C(=O)Cc1c(Cl)ccc2c1c(Cl)nn2C` [(Ia), 2-(3,5-dichloro-1-methyl-indazol-4-yl)-1-[(1S,3R)-3-(hydroxymethyl)-5-(1-hydroxy-1-methyl-ethyl)-1-methyl-3,4-dihydro-1H-isoquinolin-2-yl]ethanone], the solubility at 24 h was roughly 1.5 µg/mL (≈ 3.15 µM) in data set [2] (setting [3]); less than 1 µg/mL in data set [2] (setting [4]); roughly 4 µg/mL (≈ 8.4 µM) in data set [2] (setting [5]); less than 1 µg/mL in data set [2] (setting [6]); less than 1 µg/mL in data set [2] (setting [7]); less than 1 µg/mL in data set [2] (setting [8]).

In the case of `CC(C)[C@H](N)C(=O)OC[C@H]1Cc2c(cccc2C(C)(C)O)[C@H](C)N1C(=O)Cc1c(Cl)ccc2c1c(Cl)nn2C` [(II-B), [(1S,3R)-2-[2-(3,5-dichloro-1-methyl-indazol-4-yl)acetyl]-5-(1-hydroxy-1-methyl-ethyl)-1-methyl-3,4-dihydro-1H-isoquinolin-3-yl]methyl (2S)-2-amino-3-methyl-butanoate], the solubility at 24 h is roughly 30 µg/mL (≈ 52.1 µM) in data set [2] (setting [3]); roughly 4800 µg/mL (≈ 8340 µM) in data set [2] (setting [4]); roughly 900 µg/mL (≈ 1560 µM) in data set [2] (setting [5]); roughly 850 µg/mL (≈ 1480 µM) in data set [2] (setting [6]); roughly 70 µg/mL (≈ 122 µM) in data set [2] (setting [7]); roughly 40 µg/mL (≈ 69.5 µM) in data set [2] (setting [8]). Moreover, in data set [1], the “cleavage” value is given as “partially cleaved”.

In the case of `C[C@H]1c2cccc(C(C)(C)O)c2C[C@H](COP(=O)(O)O)N1C(=O)Cc1c(Cl)ccc2c1c(Cl)nn2C` [(II-A), [(1S,3R)-2-[2-(3,5-dichloro-1-methyl-indazol-4-yl)acetyl]-5-(1-hydroxy-1-methyl-ethyl)-1-methyl-3,4-dihydro-1H-isoquinolin-3-yl]methyl dihydrogen phosphate], the “Solubility Measurements (mean value) (24 h)” value in data set [2] (FaSSIF-V2, pH 6.5, 37° C.) is roughly 1100 µg/mL. Besides, the solubility at 24 h in data set [2] (setting [6]) and in data set [2] (setting [8]) was roughly 1000 µg/mL each time. Besides, in data set [1], the “cleavage” value is “completely cleaved”.

As to `C[C@H]1c2cccc(C(C)(C)O)c2C[C@H](COP(=O)(O)O)N1C(=O)Cc1c(Cl)ccc2c1c(Cl)nn2C` [(II-Ax), [(1S,3R)-2-[2-(3,5-dichloro-1-methyl-indazol-4-yl)acetyl]-5-(1-hydroxy-1-methyl-ethyl)-1-methyl-3,4-dihydro-1H-isoquinolin-3-yl]methyl dihydrogen phosphate], the “Solubility Measurements (mean value) (24 h)” value in data set [2] (FaSSIF-V2, pH 6.5, 37° C.) is greater than 5000 µg/mL; in data set [2] (FeSSIF-V2, pH 5.8, 37° C.), greater than 5000 µg/mL. Moreover, the solubility at 24 h in data set [2] (setting [7]) is greater than 5000 µg/mL.
